In paper PMC10060354, “Discovery of a small molecule ligand of FRS2 that inhibits invasion and tumor growth” (Cellular Oncology, 2022):

How the values were obtained:
AKT(pS473) = test: Immunoblotting, AKT phosphorylation; assay type: cell-based, human; conditions: SW780 cells
Method: Cells were serum starved o.n. and 10 µM compound or 1 µM (BGJ398) were added 3 h before stimulation with 100 ng/ml bFGF for 15 min. Cells were lysed in RIPA buffer containing protease inhibitor cocktail and lysates resolved by SDS-PAGE. Membranes were probed with primary antibodies against phospho-FRS2, FRS2, phospho-ERK1/2, ERK1/2, pAKT, AKT and tubulin. Integrated density of immuno-reactive bands was quantified using Adobe Photoshop CS3. Integrated densities of phospho bands relative to non-phospho bands of same protein were calculated and plotted as fold-change relative to untreated control conditions. Compounds and BGJ398 were added in DMSO and corresponding DMSO concentrations were used in control samples.

DAOY siFRS2 cells = test: SIA, bFGF-induced collagen I invasion in FRS2-depleted cells; assay type: cell-based, human
Method: (§1) 1000—2500 cells/well in 100 μl were seeded in 96 well Corning® Spheroid microplate (CLS4520, Sigma-Aldrich) or in cell-repellent 96 well microplate (650,790, Greiner Bio-one). SIA and analysis was performed as described before. In brief: After spheroid formation (24 – 72 h after seeding), 70 µl medium was removed and replaced with the collagen mixture (2.5 mg/ml Pure Col Collagen I (Advanced Biomatrix)), DMEM 1x (from 10 × stock, Sigma, D2429) and 0.4% Sodium bicarbonate (Sigma, S8761)), resulting in a final collagen concentration of 1.75 mg/ml. Embedded spheroids were stimulated with bFGF (100 ng/ml if not otherwise stated), HGF (30 ng /ml) or EGF (20 ng/ml) and distance of invaded cells quantified 24 – 48 h after embedding. Compounds and BGJ398 were added in Dimethylsulfoxid (DMSO) and corresponding DMSO concentrations were used in control samples.
(§2) siFRS2 in DAOY cells: 50,000 cells/well in 2 ml medium were seeded in 6 well plates and incubated at 37 °C, 5% CO2. The following day cells were transfected with 10 nM siRNA (5 nM Silencer Select, 5 nM Stealth RNAi siRNA) using Lipofectamin RNAiMAX Transfection Reagent (13,778,075; Invitrogen) and Opti-MEM® medium (15,392,402; Gibco). After 6 h, the medium was exchanged with fresh complete medium and further processed for the SIA protocol.

AGS flank tumors = test: Anti-tumor activity, AGS flank xenograft model; assay type: in vivo
Method: In vivo mouse models were generated and experiment with SKOV3 and AGS models performed by EPO, experimental pharmacology & oncology Berlin-Buch GMBH (Berlin, Germany). AGS model: AGS cells were cultured in F12-K medium (10%FCS, 1%PS) until P11. […]. Tumor diameters were determined by calliper measurements 2 × weekly, body weight (BW) was measured as parameter for tolerability 2 × weekly.

SKOV3 flank tumors = test: Anti-tumor activity, SKOV3 flank xenograft model; assay type: in vivo, mice; conditions: 200 mg/kg PO once per day
Method: SKOV3 model: SKOV3 cells were cultured in McCoy´s 5A (26,600–023, ThermoFisher) media (10%FCS) until P7. Freshly isolated cells (1 × 10^6) with a viability of 98% were subcutaneously transplanted to left flank of 8-week-old female mice in PBS/Matrigel (1:1). […] Tumor diameters were determined by calliper measurements 2 × weekly, body weight (BW) was measured as parameter for tolerability 2 × weekly. For assessing significance of differences between treatments at the individual timepoints, a two-way ANOVA analysis with Turkey’s multiple comparison test was performed.

RT-112 [1] = test: CellTiter-Glo 3D cell viability; assay type: cell-based; conditions: Homo sapiens, RT-112, 48 h
Method: (§3) Cell viability was determined using CellTiter-Glo® 2D or 3D cell viability assays (#G9242, #G9682, Promega). 500 cells/25 µl were seeded in flat bottom (#781,091, Greiner bio-one) or U-low adhesion (#4516, Corning) 384-well plate, 24 h prior to treatment. Increasing concentrations of compounds are deposited on cells using a HP Digital Drug Dispenser with DMSO total volume normalization. After 48 h, the CellTiter-Glo® 2D or 3D reagent was added (volume/volume) following manufacturer’s instructions. Plates were incubated at RT (room temperature) under agitation for 30 min and luminescence representing the number of viable cells was quantified with a Cytation 3 imaging reader (BioTek®). Experiments were performed independently three times with three technical replicas each.

AGS = test: CellTiter-Glo 3D cell viability; assay type: cell-based; conditions: Homo sapiens, full growth medium, 48 h
Method: as §3

DAOY = test: CellTiter-Glo 3D cell viability; assay type: cell-based; conditions: Homo sapiens, full growth medium, 48 h
Method: as §3

SKOV3 = test: CellTiter-Glo 3D cell viability; assay type: cell-based; conditions: Homo sapiens, SK-OV-3, full growth medium, 48 h
Method: as §3

HCT116 [2] = test: CellTiter-Glo 3D cell viability; assay type: cell-based; conditions: Homo sapiens, HCT-116, full growth medium, 48 h
Method: as §3

M059K = test: CellTiter-Glo 3D cell viability; assay type: cell-based; conditions: Homo sapiens, full growth medium, 48 h
Method: as §3

DMS114 = test: Boyden chamber transwell migration assay; assay type: cell-based, human; conditions: 24 h
Method: (§4) Transwells with 5 μm pore size (83.3932.500; Sarstedt) were coated with 50 µl of 0.06 μg/μl Pure Col Collagen I (5005; Advanced BioMatrix) dissolved in 100% EtOH for a final concentration of 10 μg/cm^2. 10,000 – 15,000 cells were resuspended in serum-free medium or serum-free medium containing the appropriate treatment and seeded in the upper chamber of a 24 well plate containing the coated transwell. The lower chamber was filled with either serum-free medium or serum-free medium with bFGF (25 ng/ml). Transwell migration was allowed for 24 h (DMS114) or 48 h (HCT116) at 37 °C, 5% CO2. Inserts were washed twice with PBS and the remaining non-invading cells on the upper surface of the membrane were removed using a cotton swab. The cells were fixed in 4% paraformaldehyde (28908; Thermo Fisher Scientific) in PBS for 5 min at RT. Fixed cells were washed twice with PBS and stained with DAPI for 15 min at RT. Inserts were washed three times in PBS before images of DAPI-stained nuclei were acquired using a widefield Nikon Ti2 microscope at 40 × magnification. Nuclei were counted on the membrane areas using ImageJ software and plotted on Prism 9 software (GraphPad).

HCT116 [3] = test: Boyden chamber transwell migration assay; assay type: cell-based, human; conditions: 2.5, 5 or 10 µM, 48 h
Method: as §4

RT-112 [4] = test: SIA, collagen I invasion; assay type: cell-based, human
Method: as §1

DAOY siCTL cells = test: SIA, bFGF-induced collagen I invasion in control siRNA cells; assay type: cell-based; conditions: Homo sapiens
Method: as §1, §2

[5] = AGS model, 200 mg/kg PO once per day

SMILES	pAKT (result in words) (AKT(pS473))	IC50 (DAOY siFRS2 cells; Homo sapiens, DAOY siFRS2 (reduced FRS2)) [µM]	increase of IC50 in cells with reduced FRS2 compared to control (DAOY siFRS2 cells; siFRS2 vs siCTL)	tolerability in AGS tumor-bearing mice (result in words) (AGS flank tumors; 200 mg/kg PO, treatment interrupted for 7 days at day 72)	animals with TV reduced at d67 and plateaued between d70 and 77 (AGS flank tumors; [5])	average tumor volume (result in words) (AGS flank tumors; [5])	mice with less than average control tumor growth during treatment (SKOV3 flank tumors)	tumor growth (result in words) (SKOV3 flank tumors)	IC50 (RT-112 [1]) [µM]	IC50 (AGS) [µM]	IC50 (DAOY) [µM]	IC50 (SKOV3) [µM]	IC50 (HCT116 [2]) [µM]	IC50 (M059K) [µM]	concentration at which significant reduction of transwell migration was observed (DMS114) [µM]	basal and bFGF-increased transwell migration (result in words) (HCT116 [3])	EC50 (RT-112 [4]; Homo sapiens, RT-112) [µM]	basal and ligand-induced collagen I invasion (result in words) (RT-112 [4]; RT-112 (FGFR3-TACC3 fusion))	IC50 (DAOY siCTL cells) [µM]
Cc1[nH]nc(-c2ccc(O)c(C)c2O)c1-c1nc2ccccc2s1 [Compound E12]	increase in pAKT																		
O=[N+]([O-])c1c(Cl)cc(O)c2c1C1C=CCC1C(c1ccc(Cl)cc1)N2 (stereo not shown) [Compound 7]		7.96	more than 2.5 fold	signs of toxicity	four out of the six	did not significantly reduce average TV compared to control	six out of the seven	significant reduction in tumor growth between d55 and d80	12.3	3.35	6.56	9.46	4.56	15.2	10	abolished	1.06	reduced both basal and ligand-induced collagen I invasion	3.01
